Source: ChEMBL document CHEMBL5727406, “Positive allosteric modulators of the GLP-1 receptor” (2019)

Molecular target: Glucagon-like peptide 1 receptor (Homo sapiens, UniProt P43220)
Assay: GLP-1 Assay with EX-4 Synthetic Agonist: To assess the effects of test compounds on GLP-1 or glucagon potency and efficacy, a high-throughput calcium mobilization assay was used essentially as previously described (Morris L C, Days E L, Turney M, Mi D, Lindsley C W, Weaver C D, Niswender K D, A Duplexed High-Throughput Screen to Identify Allosteric Modulators of the Glucagon-Like Peptide 1 and Glucagon Receptors. J. Biomol. Screen. 2014 Feb. 13, 19(6):847-858). Briefly, human GLP-1R or Glucagon Receptor 9-3-H cells over-expressing a promiscuous G-protein (Millipore, Billerica, Mass.) were plated at 15,000 cells/well in black-walled 384-well plates (Greiner Bio-one, Monroe, N.C.) in Dulbecco's Modified Eagles Medium (DMEM) with 10% FCS, 4.0 mM L-glutamine, 1× non-essential amino acids (NEAAs), and 10.0 mM HEPES without antibiotics. After overnight attachment, cells were washed twice with assay buffer (HBSS supplemented with 20 mM HEPES and 1.0 mM probenecid) using an EL×405CW cell washer (Bio-Tek, Winooski, Vt.) and then loaded with the calcium sensitive dye fluo-4 AM (Invitrogen, Grand Island, N.Y.) at a final concentration of 2.0 μM in assay buffer. After a 45-minute incubation at room temperature, the dye was removed by washing, leaving 20 μL of assay buffer. […]

Chain of Glucagon-like peptide 1 receptor (P43220 whole entry): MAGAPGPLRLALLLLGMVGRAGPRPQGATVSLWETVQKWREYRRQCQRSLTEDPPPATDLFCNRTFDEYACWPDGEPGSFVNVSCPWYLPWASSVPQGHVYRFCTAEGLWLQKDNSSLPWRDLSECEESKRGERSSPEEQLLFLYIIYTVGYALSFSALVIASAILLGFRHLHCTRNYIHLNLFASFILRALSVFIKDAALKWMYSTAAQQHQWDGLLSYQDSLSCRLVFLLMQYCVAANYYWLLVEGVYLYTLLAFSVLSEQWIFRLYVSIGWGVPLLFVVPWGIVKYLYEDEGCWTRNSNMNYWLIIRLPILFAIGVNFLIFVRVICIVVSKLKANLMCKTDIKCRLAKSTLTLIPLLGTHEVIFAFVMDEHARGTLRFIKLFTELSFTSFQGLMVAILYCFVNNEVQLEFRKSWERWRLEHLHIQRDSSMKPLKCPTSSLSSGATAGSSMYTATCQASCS

For `Cc1c2ccccc2n2c(C(=O)NC[C@H]3CCCN3C(C)C)cn(C3CCCC3)c(=O)c12`, which EC50 is on record?
Its EC50 is greater than 30 µM.
